How the values were obtained:
HPK1 [1] = target: T1, HPK1 (Homo sapiens, UniProt Q92918); assay: HPK1 kinase activity assay (ADP-Glo); conditions: HPK1 Kinase activity IC50 (nM), 1 nM HPK1, 10 μM ATP, 0.1 μg/μL MBP
T1 sequence (Q92918 1-346 limits assumed): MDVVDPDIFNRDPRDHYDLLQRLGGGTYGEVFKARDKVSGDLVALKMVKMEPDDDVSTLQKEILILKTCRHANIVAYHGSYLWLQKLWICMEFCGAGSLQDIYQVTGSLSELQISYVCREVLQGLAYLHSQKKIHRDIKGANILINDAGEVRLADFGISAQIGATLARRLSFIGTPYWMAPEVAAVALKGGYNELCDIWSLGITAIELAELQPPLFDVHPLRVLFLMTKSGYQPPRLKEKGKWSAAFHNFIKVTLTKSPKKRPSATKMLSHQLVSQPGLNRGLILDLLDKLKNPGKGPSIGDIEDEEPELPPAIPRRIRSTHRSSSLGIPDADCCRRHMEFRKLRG

HPK1 [2] = target: HPK1 (Homo sapiens, UniProt Q92918); assay: SLP76 phosphorylation assay (intracellular HPK1 inhibitory activity, p-SLP76 Ser376 sandwich ELISA); conditions: p-SLP76 IC50(nM), Jurkat, Clone E6-1 cells; 1 h compound pre-incubation, anti-CD3 beads stimulation 20 min; SLP76 phosphorylation at S376
Target sequence in this assay (Q92918 whole entry): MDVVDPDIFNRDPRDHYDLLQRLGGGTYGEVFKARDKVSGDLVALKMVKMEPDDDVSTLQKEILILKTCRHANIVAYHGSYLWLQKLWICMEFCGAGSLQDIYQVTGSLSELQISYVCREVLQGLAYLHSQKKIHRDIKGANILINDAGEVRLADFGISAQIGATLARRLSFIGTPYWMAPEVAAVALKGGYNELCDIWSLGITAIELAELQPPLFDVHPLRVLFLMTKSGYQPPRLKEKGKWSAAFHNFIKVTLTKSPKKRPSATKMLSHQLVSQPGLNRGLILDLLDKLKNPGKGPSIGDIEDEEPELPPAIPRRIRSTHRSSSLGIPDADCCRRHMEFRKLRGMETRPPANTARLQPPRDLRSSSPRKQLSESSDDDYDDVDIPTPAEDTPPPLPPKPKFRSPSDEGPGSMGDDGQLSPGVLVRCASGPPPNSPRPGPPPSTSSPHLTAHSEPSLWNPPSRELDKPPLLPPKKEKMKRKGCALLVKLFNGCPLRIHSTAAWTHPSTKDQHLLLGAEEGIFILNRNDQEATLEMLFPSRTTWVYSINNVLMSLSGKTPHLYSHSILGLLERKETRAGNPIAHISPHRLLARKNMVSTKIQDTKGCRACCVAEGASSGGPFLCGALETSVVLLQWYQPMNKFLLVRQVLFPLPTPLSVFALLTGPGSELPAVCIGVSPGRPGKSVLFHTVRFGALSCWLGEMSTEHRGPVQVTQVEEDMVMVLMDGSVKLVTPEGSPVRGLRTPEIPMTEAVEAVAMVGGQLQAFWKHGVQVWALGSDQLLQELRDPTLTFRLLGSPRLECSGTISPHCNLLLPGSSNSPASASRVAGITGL

| SMILES | IC50 (HPK1 [1]) [nM] | IC50 (HPK1 [2]) [nM] |
| --- | --- | --- |
| CNCc1cc(-c2cnc3[nH]cc(C)c3c2)cc2c1COCC2 [Compound Z298, N-methyl-1-(6-(3-methyl-1H-pyrrolo[2,3-b]pyridin-5-yl)isochroman-8-yl)methanamine] | 3.3 | 668 |
| Cc1c[nH]c2ncc(-c3cc4c(c([C@@H]5CCCN5)c3)CCN(c3ccnn3C)C4)cc12 [Compound Z307, (S)-2-(1-methyl-1H-pyrazol-5-yl)-7-(3-methyl-1H-pyrrolo[2,3-b]pyridin-5-yl)-5-(pyrrolidin-2-yl)-1,2,3,4-tetrahydroisoquinoline] | 0.53 | 277 |
| Cc1c[nH]c2ncc(-c3cc4c(c([C@@H]5CCCN5)c3)CN(C(=O)c3cnn(C(F)F)c3)CC4)cc12 [Compound Z336, (S)-(1-(difluoromethyl)-1H-pyrazol-4-yl)-[6-(3-methyl-1H-pyrrolo[2,3-b]pyridin-5-yl)-8-[pyrrolidin-2-yl]-3,4-dihydroisoquinolin-2(1H)-yl]methanone] | 0.36 | 174 |
| CN(C)Cc1cc(-c2cnc3[nH]cc(Cl)c3c2)cc2c1COCC2 [Compound Z233, 1-(6-(3-chloro-1H-pyrrolo[2,3-b]pyridin-5-yl)isochroman-8-yl)-N,N-dimethylmethanamine] | 4.01 | 520 |
| Cc1cc(N2CCc3cc(-c4cnc5[nH]cc(C)c5c4)cc([C@@H]4CCCN4)c3C2)cc(C)n1 [Compound Z343, (S)-2-(2,6-dimethylpyridin-4-yl)-6-(3-methyl-1H-pyrrolo[2,3-b]pyridin-5-yl)-8-(pyrrolidin-2-yl)-1,2,3,4-tetrahydroisoquinoline] | 0.4 | 177 |
| Cc1c[nH]c2ncc(-c3cc4c(c([C@@H]5CCCN5)c3)CN(C(=O)c3ccn(C)n3)CC4)cc12 [Compound Z223, (S)-(1-methyl-1H-pyrazol-3-yl)(6-(3-methyl-1H-pyrrolo[2,3-b]pyridin-5-yl)-8-(pyrrolidin-2-yl)-3,4-dihydroisoquinolin-2(1H)-yl)methanone] | 1.6 | 301 |
| CCN1Cc2cc(-c3cnc4[nH]cc(C)c4c3)cc([C@@H]3CCCN3)c2CC1=O [Compound Z292, (S)-2-ethyl-7-(3-methyl-1H-pyrrolo[2,3-b]pyridin-5-yl)-5-(pyrrolidin-2-yl)-1,4-dihydroisoquinolin-3(2H)-one] | 0.97 | 272 |
| Cc1c[nH]c2ncc(-c3cc4c(c(C5COC(N)=N5)c3)COCC4)cc12 (stereo not shown) [Compound Z243, 4-[6-(3-methyl-1H-pyrrolo[2,3-b]pyridin-5-yl)isochroman-8-yl]-4,5-dihydrooxazol-2-amine] | 16.5 | 2510 |
| C[C@@H](C#N)c1c[nH]c2ncc(-c3cc4c(c([C@@H]5CCCN5)c3)COCC4)cc12 (single isomer, unassigned) [Compound Z104-2] | 0.74 | 197 |
| CC(=O)N1Cc2cc(-c3cnc4[nH]cc(C)c4c3)cc([C@@H]3CCCN3)c2C1 [Compound Z235, (S)-1-(6-(3-methyl-1H-pyrrolo[2,3-b]pyridin-5-yl)-4-(pyrrolidin-2-yl)isoindolin-2-yl)ethan-1-one] | 1.32 | 735 |
| CC(C)c1c[nH]c2ncc(-c3cc(C4CCCN4)c4cnccc4c3)cc12 (stereo not shown) [Compound Z95, 6-(3-isopropyl-1H-pyrrolo[2,3-b]pyridin-5-yl)-8-(pyrrolidin-2-yl)isoquinoline] | 3.11 | 1080 |
| Cc1c[nH]c2ncc(-c3cc4c(c([C@@H]5CCCN5)c3)CN(C(=O)c3cnn(C5CC5)c3)CC4)cc12 [Compound Z319, (S)-(1-cyclopropyl-1H-pyrazol-4-yl)(6-(3-methyl-1H-pyrrolo[2,3-b]pyridin-5-yl)-8-(pyrrolidin-2-yl)-3,4-dihydroisoquinolin-2(1H)-yl)methanone] | 0.28 | 111 |
| CCn1cc(C(=O)N2CCc3cc(-c4cnc5[nH]cc(C)c5c4)cc([C@@H]4CCCN4)c3C2)cn1 [Compound Z335, (S)-(1-ethyl-1H-pyrazol-4-yl)-[6-(3-methyl-1H-pyrrolo[2,3-b]pyridin-5-yl)-8-[pyrrolidin-2-yl]-3,4-dihydroisoquinolin-2(1H)-yl]methanone] | 0.25 | 170 |
| Cc1c[nH]c2ncc(-c3cc4c(c([C@@H]5CCCN5)c3)CN(C(=O)c3cnn(C)c3)CC4)cc12 [Compound Z224, (S)-(1-methyl-1H-pyrazol-4-yl)(6-(3-methyl-1H-pyrrolo[2,3-b]pyridin-5-yl)-8-(pyrrolidin-2-yl)-3,4-dihydroisoquinolin-2(1H)-yl)methanone] | 1.11 | 333 |
| COC(=O)N1CCc2c(cc(-c3cnc4[nH]cc(C)c4c3)cc2[C@@H]2CCCN2)C1 [Compound Z305, methyl (S)-7-(3-methyl-1H-pyrrolo[2,3-b]pyridin-5-yl)-5-(pyrrolidin-2-yl)-3,4-dihydroisoquinoline-2(1H)-carboxylate] | 0.84 | 297 |
| Cc1c[nH]c2ncc(-c3cc4c(c([C@@H]5CCCN5)c3)CN(C(=O)c3cn(C(C)C)nc3C(F)(F)F)CC4)cc12 [Compound Z348, (S)-[1-isopropyl-3-(trifluoromethyl)-1H-pyrazol-4-yl]-[6-(3-methyl-1H-pyrrolo[2,3-b]pyridin-5-yl)-8-[pyrrolidin-2-yl]-3,4-dihydroisoquinolin-2(1H)-yl]methanone] | 0.75 | 183 |
| Cc1c[nH]c2ncc(-c3cc4c(c([C@@H]5CCCN5)c3)CCN(C(=O)[C@@H]3CCOC3)C4)cc12 [Compound Z293, (7-(3-methyl-1H-pyrrolo[2,3-b]pyridin-5-yl)-5-((S)-pyrrolidin-2-yl)-3,4-dihydroisoquinolin-2(1H)-yl) ((R)-tetrahydrofuran-3-yl)methanone] | 0.47 | 113 |
| Cc1c[nH]c2ncc(-c3cc4c(c([C@@H]5CCCN5)c3)CN(C(=O)Nc3nccs3)C4)cc12 [Compound Z386, (S)-6-(3-methyl-1H-pyrrolo[2,3-b]pyridin-5-yl)-4-(pyrrolidin-2-yl)-N-(thiazol-2-yl)isoindoline-2-carboxamide] | 2.74 | 632 |
| Cc1c[nH]c2ncc(-c3cc4c(c([C@@H]5CCCN5)c3)CCN(CC(F)(F)F)C4)cc12 [Compound Z308, (S)-7-(3-methyl-1H-pyrrolo[2,3-b]pyridin-5-yl)-5-(pyrrolidin-2-yl)-2-(2,2,2-trifluoroethyl)-1,2,3,4-tetrahydroisoquinoline] | 2.06 | 441 |
| N#CC1(c2c[nH]c3ncc(-c4cc5c(c([C@@H]6CCCN6)c4)COCC5)cc23)CC1 [Compound Z137, (S)-1-(5-(8-(pyrrolidin-2-yl)isochroman-6-yl)-1H-pyrrolo[2,3-b]pyridin-3-yl)cyclopropane-1-carbonitrile] | 0.37 | 159 |
| Cc1ccc(C(=O)N2CCc3cc(-c4cnc5[nH]cc(C)c5c4)cc([C@@H]4CCCN4)c3C2)nc1 [Compound Z439, (S)-(6-(3-methyl-1H-pyrrolo[2,3-b]pyridin-5-yl)-8-(pyrrolidin-2-yl)-3,4-dihydroisoquinolin-2(1H)-yl) (5-methylpyridin-2-yl)methanone] | 0.78 | 210 |
| FC(F)(F)c1c[nH]c2ncc(-c3cc(C4CCCN4)c4cnccc4c3)cc12 (stereo not shown) [Compound Z96, 6-(3-(trifluoromethyl)-1H-pyrrolo[2,3-b]pyridin-5-yl)-8-(pyrrolidin-2-yl)isoquinoline] | 4.13 | 1000 |
| Cc1c[nH]c2ncc(-c3cc4c(c([C@@H]5CCCN5)c3)CN(C(=O)C3CCOCC3)CC4)cc12 [Compound Z127] | 0.58 | 204 |
| COC1(C(=O)N2CCc3cc(-c4cnc5[nH]cc(C)c5c4)cc([C@@H]4CCCN4)c3C2)CC1 [Compound Z245, (S)-(1-methoxycyclopropyl)(6-(3-methyl-1H-pyrrolo[2,3-b]pyridin-5-yl)-8-(pyrrolidin-2-yl)-3,4-dihydroisoquinolin-2(1H)-yl)methanone] | 0.45 | 119 |
| Cc1c[nH]c2ncc(-c3cc4c(c([C@@H]5CCCN5)c3)CN(C(=O)C3CCOC3)CC4)cc12 (stereo partly shown) [Compound Z219] | 0.66 | 257 |
| Cc1c[nH]c2ncc(-c3cc4c(c([C@@H]5CCCN5)c3)CCN(C(=O)C3CCOCC3)C4)cc12 [Compound Z312, (S)-1-[7-(3-methyl-1H-pyrrolo[2,3-b]pyridin-5-yl)-5-[pyrrolidin-2-yl]-3,4-dihydroisoquinolin-2(1H)-yl](tetrahydro-2H-pyran-4-yl)methanone] | 0.47 | 88.4 |
| Cc1c[nH]c2ncc(-c3cc([C@H]4CCCN4)c4cnccc4c3)cc12 (single isomer, unassigned) [Compound Z3-2] | 3.37 | 604 |
| Cc1c[nH]c2ncc(-c3cc4c(c([C@@H]5CCCN5)c3)CCN(C(=O)[C@](C)(O)C(F)(F)F)C4)cc12 [Compound Z285-1, (S)-3,3,3-trifluoro-2-hydroxy-2-methyl-1-(7-(3-methyl-1H-pyrrolo[2,3-b]pyridin-5-yl)-5-((S)-pyrrolidin-2-yl)-3,4-dihydroisoquinolin-2(1H)-yl)propan-1-one] | 0.87 | 239 |
| O=C1OCc2ccc(-c3c[nH]c4ncc(-c5cc6c(c([C@@H]7CCCN7)c5)COCC6)cc34)cc21 [Compound Z365, (S)-6-(5-(8-(pyrrolidin-2-yl)isochroman-6-yl)-1H-pyrrolo[2,3-b]pyridin-3-yl)isobenzofuran-1(3H)-one] | 0.97 | 315 |

— patent publication US20240182465A1 (GENFLEET THERAPEUTICS (SHANGHAI) INC., priority 2021, published 2024)
